The values that follow come from patent US8278343B2, “Pyrrolidines” (Pfizer Inc., priority 2008, dated 2012).

Broadly, the Ki is a measure of affinity in units of concentration, obtained from inhibition or displacement.

In this test the target is T1, recombinant human EP-2 receptor (Homo sapiens, UniProt P43116).
T1 construct: stably transfected with full length cDNA encoding human Prostaglandin E2; expressed in transfected cells
T1 sequence (P43116 whole entry): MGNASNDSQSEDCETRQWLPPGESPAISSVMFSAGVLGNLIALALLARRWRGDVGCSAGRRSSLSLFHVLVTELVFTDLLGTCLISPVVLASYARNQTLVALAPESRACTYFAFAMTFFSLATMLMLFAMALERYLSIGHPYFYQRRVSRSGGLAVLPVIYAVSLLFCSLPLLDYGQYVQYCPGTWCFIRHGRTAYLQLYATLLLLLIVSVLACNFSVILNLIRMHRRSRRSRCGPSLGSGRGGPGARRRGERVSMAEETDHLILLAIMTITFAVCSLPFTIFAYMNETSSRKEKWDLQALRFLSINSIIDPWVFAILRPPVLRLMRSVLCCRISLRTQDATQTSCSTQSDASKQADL
The test is described as follows: In vitro antagonist potency against recombinant human prostaglandin E2 (EP-2) receptor in CHO cells (cAMP, Protocol 1). Type of test: cell-based. The following applies: CHO cells expressing recombinant human EP-2 receptor, stimulated with 5 nM PGE2; cAMP readout; Ki by Cheng-Prusoff equation; read-out: EP2 Ki. How it is done: 1.0 Measurement of In Vitro Antagonist Potency (IC50) of Compounds Against Recombinant Human Prostaglandin E2 Receptor in CHO Cells
The prostaglandin E2 (EP-2) receptor is Gs coupled and agonism of the receptor by PGE2 results in activation of intracellular adenylate cyclase enzymes that synthesise the second messenger signalling molecule, adenosine 3′,5′-cyclic monophosphate (cAMP). CHO cells expressing the recombinant human EP-2 receptor are stimulated with PGE2 (5 nM) equivalent to approximately […] values to give the maximal cAMP signal. Decreases in cAMP levels following treatment of stimulated recombinant EP-2 cells with potential antagonist compounds were measured and potency (IC50) calculated as follows.
A Chinese hamster ovary (CHO) cell line stably transfected with full length cDNA encoding human Prostaglandin E2 was established using standard molecular biology methods. Test compounds were dissolved in dimethyl sulphoxide (DMSO) at 4 mM. 11 point half log unit increment dilution series of test compound were prepared in DMSO then diluted 1 in 40 in a buffer comprised of phosphate buffered saline (PBS) and 0.05% pluronic F-127 surfactant. Freshly cultured cells at 80-90% confluence were harvested and re-suspended in 90% growth media/10% DMSO. The cells were frozen using a planar freezer and stored in frozen aliquots in cryovials in liquid nitrogen until the day of the experiment. A vial of cells was defrosted in a 37° C. water bath for 2 min, then transferred to 10 ml of Dulbecco's Modified Eagle's Medium (DMEM). The cells were then centrifuged for 5 min at 1000 g and the pellet re-suspended at 1,000,000 cells/ml in DMEM. 5,000 cells (5 ul) were added to 5 ul of the compound dilution series in a 384 well assay plate and pre-incubated for 30 min at 37° C. 5 ul of agonist (15 nM PGE2 in PBS to give 5 nM FAC) was added and plates further incubated for 90 min at 37° C. The relative cAMP concentration in each well was then measured using a β-galactosidase enzyme fragment complementation method purchased in kit form as the Discoverx cAMP II kit from GE Healthcare, UK. […] Sigmoidal curves were fitted to plots of log10 inhibitor concentration vs percent effect. IC50 estimates were determined as the concentration of test compound giving an effect half way between the bottom and top asymptotes of the sigmoidal dose response curve. Each experiment included an IC50 determination for the literature compound as a standard to track assay consistency and allow fair comparison between values obtained in different experiments. The EC50 of PGE2 is used in combination with the ligand concentration in the assay to determine Ki values for antagonist dose responses using the Cheng-Prusoff equation. Consequently an agonist dose response curve is carried out for each experiment using the same incubation as the antagonist plate.
As to `N#Cc1ccc(-c2ccc(OCC3(C(=O)O)CCN(C(=O)c4ccc(Cl)cc4)C3)cc2)cc1` (single isomer, unassigned) [Example 27], the Ki was 4.34 nM. The figure for `COc1ccc(C(=O)N2CCC(COc3ccc(-c4ccc(C#N)cc4)cc3)(C(=O)O)C2)cc1` (single isomer, unassigned) [Example 1, 3-(4′-Cyano-biphenyl-4-yloxymethyl)-1-(4-methoxy-benzoyl)-pyrrolidine-3-carboxylic acid] is 0.633 nM. For `O=C(Nc1ccccc1F)N1CCC(COc2ccc(-c3ccc(F)cc3)cc2)(C(=O)O)C1` (single isomer, unassigned) [Example 103], the Ki turned out to be 3.77 nM. The result for `COc1ccccc1C(=O)N1CCC(COc2cnc(-c3ccc(Cl)cc3)nc2)(C(=O)O)C1` (single isomer, unassigned) [Example 75] reads 504 nM; that for `COc1ccccc1C(=O)N1CCC(COc2ccc(-c3ccc(C#N)cc3)nc2)(C(=O)O)C1` (single isomer, unassigned) [Example 61], 26.2 nM. The figure for `O=C(c1ccc(Cl)cc1)N1CCC(COc2ccc(-c3ncc(Cl)cn3)cc2)(C(=O)O)C1` (single isomer, unassigned) [Example 31] is 282 nM; for `COc1ccccc1C(=O)N1CCC(COc2ccc(-c3ccc(Cl)cc3)nc2)(C(=O)O)C1` (single isomer, unassigned) [Example 70] it is 22.7 nM; for `COc1ccccc1C(=O)N1CCC(COc2ccc(-c3ccc(C#N)cn3)cc2)(C(=O)O)C1` (centres unmarked) [Example 3, 3 ((4-(5-cyanopyridin-2-yl)phenoxy)methyl)-1-(2-methoxybenzoyl)pyrrolidine-3-carboxylic acid] it is 24.4 nM. The result for `O=C(Oc1ccc(Cl)cc1)N1CCC(COc2ccc(-c3ccc(F)cc3)cc2)(C(=O)O)C1` (single isomer, unassigned) [Example 89] reads 252 nM; that for `Cc1ccc(OC(=O)N2CCC(COc3ccc(-c4ccc(F)cc4)cc3)(C(=O)O)C2)cc1` (single isomer, unassigned) [Example 86], 5.36 nM; that for `O=C(c1ccc(F)cc1)N1CCC(COc2ccc(-c3ncc(Cl)cn3)cc2)(C(=O)O)C1` (single isomer, unassigned) [Example 16], 0.692 nM.

As for `O=C(c1ccc(Cl)cc1)N1CCC(COc2ccc(-c3ccc(F)cc3)cc2)(C(=O)O)C1` (single isomer, unassigned) [Example 36], the Ki was determined as 1.16 nM. The figure for `O=C(Oc1ccc(F)cc1)N1CCC(COc2ccc(-c3ccc(F)cc3)cc2)(C(=O)O)C1` (single isomer, unassigned) [Example 90] is 4.16 nM; for `CCOc1ccccc1C(=O)N1CCC(COc2cnc(-c3ccc(Cl)cc3)nc2)(C(=O)O)C1` (single isomer, unassigned) [Example 57] it is 29.4 nM.

On to `COc1ccc(C(=O)N2CCC(COc3ccc(-c4ccc(Cl)cn4)cc3)(C(=O)O)C2)cc1` (single isomer, unassigned) [Example 47], for which the Ki came to 226 nM. `O=C(c1ccc(Cl)cc1)N1CCC(COc2ccc(-c3ccc(Cl)cc3)nc2)(C(=O)O)C1` (single isomer, unassigned) [Example 33]: the inhibition constant Ki is 141 nM. The figure for `COc1ccc(OC(=O)N2CCC(COc3ccc(-c4ccc(F)cc4)cc3)(C(=O)O)C2)cc1` (single isomer, unassigned) [Example 93] is 165 nM; for `O=C(C1CCCC1)N1CCC(COc2ccc(-c3ccc(F)cc3)cc2)(C(=O)O)C1` (single isomer, unassigned) [Example 82] it is 524 nM. Regarding `O=C(c1ccc(F)cc1)N1CCC(COc2cnc(-c3ccc(Cl)cc3)cn2)(C(=O)O)C1` (single isomer, unassigned) [Example 10], the Ki is 0.741 nM. The figure for `O=C(C1CC1)N1CCC(COc2ccc(-c3ccc(F)cc3)cc2)(C(=O)O)C1` (single isomer, unassigned) [Example 83] is 119 nM; for `N#Cc1ccc(-c2ccc(OCC3(C(=O)O)CCN(C(=O)c4ccc(Cl)cc4)C3)cc2)cc1` (single isomer, unassigned) [Example 26] it is 0.0376 nM. Take `COc1ccccc1C(=O)N1CCC(COc2ccc(-c3ccc(F)cc3)nc2)(C(=O)O)C1` (single isomer, unassigned) [Example 76]: the inhibition constant (Ki) worked out at 158 nM.

For the compound `COc1ccccc1C(=O)N1CCC(COc2ccc(-c3ccc(C#N)cc3)nc2)(C(=O)O)C1` (single isomer, unassigned) [Example 62], the inhibition constant (Ki) came to 868 nM. The result for `COc1ccccc1C(=O)N1CCC(COc2cnc(-c3ccc(Cl)cc3)nc2)(C(=O)O)C1` (single isomer, unassigned) [Example 74] reads 35.6 nM; that for `COc1ccccc1C(=O)N1CCC(COc2ccc(-c3ccc(C#N)cc3)cc2)(C(=O)O)C1` (single isomer, unassigned) [Example 66], 3.3 nM. Take `O=C(c1ccc(Cl)cc1)N1CCC(COc2cnc(-c3ccc(Cl)cc3)cn2)(C(=O)O)C1` (single isomer, unassigned) [Example 34]: the Ki turned out to be 0.743 nM. The figure for `CCOc1ccccc1C(=O)N1CCC(COc2ccc(-c3ccc(F)cc3)cc2)(C(=O)O)C1` (single isomer, unassigned) [Example 53] is 17.5 nM.

For the compound `COc1ccc(C(=O)N2CCC(COc3ccc(-c4ccc(Cl)cc4)nc3)(C(=O)O)C2)cc1` (single isomer, unassigned) [Example 45], the inhibitory constant (Ki) was 170 nM. The result for `COc1ccccc1C(=O)N1CCC(COc2ccc(-c3ncc(C#N)cn3)cc2)(C(=O)O)C1` (single isomer, unassigned) [Example 65] reads 175 nM. The result for `O=C(c1ccc(F)cc1)N1CCC(COc2ccc(-c3ccc(Cl)cn3)cc2)(C(=O)O)C1` (single isomer, unassigned) [Example 13] reads 333 nM. Turning to `COc1ccccc1C(=O)N1CCC(COc2ccc(-c3ccc(Cl)cc3)nc2)(C(=O)O)C1` (single isomer, unassigned) [Example 71], the Ki turned out to be 23.9 nM. Consider `COc1ccc(C(=O)N2CCC(COc3cnc(-c4ccc(Cl)cc4)cn3)(C(=O)O)C2)cc1` (single isomer, unassigned) [Example 39], for which the inhibition constant Ki is 48.1 nM. Regarding `COc1ccccc1C(=O)N1CCC(COc2ccc(-c3ncc(Cl)cn3)cc2)(C(=O)O)C1` (single isomer, unassigned) [Example 72], the inhibition constant (Ki) amounted to 25.5 nM. The figure for `COc1cccc(NC(=O)N2CCC(COc3ccc(-c4ccc(F)cc4)cc3)(C(=O)O)C2)c1` (single isomer, unassigned) [Example 98] is 260 nM. The result for `O=C(c1ccc(F)cc1)N1CCC(COc2ccc(F)c(Cl)c2)(C(=O)O)C1` (single isomer, unassigned) [Example 25] reads 192 nM; that for `COc1ccccc1OC(=O)N1CCC(COc2ccc(-c3ccc(F)cc3)cc2)(C(=O)O)C1` (single isomer, unassigned) [Example 94], 431 nM. Take `O=C(C1CC1)N1CCC(COc2ccc(-c3ccc(F)cc3)cc2)(C(=O)O)C1` (single isomer, unassigned) [Example 84]: the Ki was 438 nM. With `O=C(C1CCCC1)N1CCC(COc2ccc(-c3ccc(F)cc3)cc2)(C(=O)O)C1` (single isomer, unassigned) [Example 81], the inhibitory constant (Ki) was 55.5 nM. The figure for `CCOc1ccccc1C(=O)N1CCC(COc2ccc(-c3ncc(Cl)cn3)cc2)(C(=O)O)C1` (single isomer, unassigned) [Example 55] is 28.9 nM; for `COc1ccc(OC(=O)N2CCC(COc3ccc(-c4ccc(F)cc4)cc3)(C(=O)O)C2)cc1` (single isomer, unassigned) [Example 92] it is 7.81 nM. The figure for `COc1cccc(NC(=O)N2CCC(COc3ccc(-c4ccc(F)cc4)cc3)(C(=O)O)C2)c1` (single isomer, unassigned) [Example 97] is 1.89 nM. The result for `O=C(c1ccc(F)cc1)N1CCC(COc2cnc(-c3ccc(Cl)cc3)nc2)(C(=O)O)C1` (single isomer, unassigned) [Example 5] reads 1.64 nM. For the compound `COc1ccccc1C(=O)N1CCC(COc2ccc(-c3ncc(F)cn3)cc2)(C(=O)O)C1` (single isomer, unassigned) [Example 63], the inhibitory constant (Ki) was 174 nM. For `CCOc1ccccc1C(=O)N1CCC(COc2cnc(-c3ccc(Cl)cc3)cn2)(C(=O)O)C1` (single isomer, unassigned) [Example 52], the inhibition constant Ki is 134 nM.
